In PubChem BioAssay AID1963442 (Molecular Pharmacology Branch, DTP, NCI, 2024):

Test system: MPNST complex spheroid with HUVEC/MSC, growth, % test/control
Test: Anticancer human tumor MPNST cell line growth inhibition [Asc];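 also: compounds left on spheroids for seven days before reading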
Details: for IC50: curve of first compound; for viability, T/C: stronger effect = lower value
Outline: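 Complex spheroids combining tumor cells with HUVEC endothelial cells and human MSCs, at 37 degrees C, 5% CO2; agents tested alone or combined, half-log dilutions from at or near clinical Cmax, or 10 microM if Cmax unknown.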

[1] = second compound 0.00316 µM, first compound 0.0316 µM
[2] = second compound 0.00316 µM, first compound 0.1 µM
[3] = second compound 0.00316 µM, first compound 0.316 µM
[4] = second compound 0.00316 µM, first compound 1 µM
[5] = second compound 0.01 µM, first compound 0.0316 µM
[6] = second compound 0.01 µM, first compound 0.1 µM
[7] = second compound 0.01 µM, first compound 0.316 µM
[8] = second compound 0.01 µM, first compound 1 µM
[9] = second compound 0.0316 µM, first compound 0.0316 µM
[10] = second compound 0.0316 µM, first compound 0.1 µM
[11] = second compound 0.0316 µM, first compound 0.316 µM
[12] = second compound 0.0316 µM, first compound 1 µM
[13] = second compound 0.1 µM, first compound 0.0316 µM
[14] = second compound 0.1 µM, first compound 0.1 µM
[15] = second compound 0.1 µM, first compound 0.316 µM
[16] = second compound 0.1 µM, first compound 1 µM
[17] = second compound 0.316 µM, first compound 0.0316 µM
[18] = second compound 0.316 µM, first compound 0.1 µM
[19] = second compound 0.316 µM, first compound 0.316 µM
[20] = second compound 0.316 µM, first compound 1 µM
[21] = second compound 1 µM, first compound 0.0316 µM
[22] = second compound 1 µM, first compound 0.1 µM
[23] = second compound 1 µM, first compound 0.316 µM
[24] = second compound 1 µM, first compound 1 µM

**Q.** Which IC50 (second compound 0.00316 µM) does the source give for C=CC(=O)N1CCN(c2nc(=O)n(-c3c(C)ccnc3C(C)C)c3nc(-c4c(O)cccc4F)c(F)cc23)C(C)C1 (centres undefined) + CNC(C)C(=O)NC1CN(S(=O)(=O)c2cccc(S(=O)(=O)N3CCC4CCC(C(=O)NC(c5ccccc5)c5ccccc5)N4C(=O)C(NC(=O)C(C)NC)C3)c2)CCC2CCC(C(=O)NC(c3ccccc3)c3ccccc3)N2C1=O here?
**A.** The IC50 was greater than 10000 nM.

**Q.** And the IC50 (second compound 0.01 µM)?
**A.** The IC50 was greater than 10000 nM.

**Q.** What about the IC50 (second compound 0.0316 µM) of the same compound?
**A.** Its IC50 is greater than 10000 nM.

**Q.** And the IC50 (second compound 0.1 µM)?
**A.** The IC50 was greater than 10000 nM.

**Q.** And the IC50 (second compound 0.316 µM)?
**A.** The IC50 was greater than 10000 nM.

**Q.** And the IC50 (second compound 1 µM)?
**A.** Its IC50 is greater than 10000 nM.

**Q.** And the viability, T/C [1]?
**A.** The viability, T/C was 81.6%.

**Q.** What about the viability, T/C [2] of the same compound?
**A.** Its viability, T/C is 98.1%.

**Q.** And the viability, T/C [3]?
**A.** The viability, T/C was 94.1%.

**Q.** What about the viability, T/C [4] of the same compound?
**A.** The viability, T/C was 102%.

**Q.** And the viability, T/C (second compound 0.00316 µM, first compound 3.16 µM)?
**A.** Its viability, T/C is 110%.

**Q.** And the viability, T/C (second compound 0.00316 µM, first compound 10 µM)?
**A.** Its viability, T/C is 128%.

**Q.** What about the viability, T/C [5] of the same compound?
**A.** The viability, T/C was 81.2%.

**Q.** And the viability, T/C [6]?
**A.** Its viability, T/C is 101%.

**Q.** What about the viability, T/C [7] of the same compound?
**A.** Its viability, T/C is 84%.

**Q.** And the viability, T/C [8]?
**A.** The viability, T/C was 112%.

**Q.** What about the viability, T/C (second compound 0.01 µM, first compound 3.16 µM) of the same compound?
**A.** The viability, T/C was 114%.

**Q.** What about the viability, T/C (second compound 0.01 µM, first compound 10 µM) of the same compound?
**A.** The viability, T/C was 145%.

**Q.** And the viability, T/C [9]?
**A.** Its viability, T/C is 96.1%.

**Q.** And the viability, T/C [10]?
**A.** Its viability, T/C is 69.1%.

**Q.** And the viability, T/C [11]?
**A.** Its viability, T/C is 127%.

**Q.** What about the viability, T/C [12] of the same compound?
**A.** Its viability, T/C is 109%.

**Q.** And the viability, T/C (second compound 0.0316 µM, first compound 3.16 µM)?
**A.** Its viability, T/C is 125%.

**Q.** What about the viability, T/C (second compound 0.0316 µM, first compound 10 µM) of the same compound?
**A.** The viability, T/C was 185%.

**Q.** What about the viability, T/C [13] of the same compound?
**A.** Its viability, T/C is 101%.

**Q.** And the viability, T/C [14]?
**A.** The viability, T/C was 92.7%.

**Q.** What about the viability, T/C [15] of the same compound?
**A.** Its viability, T/C is 117%.

**Q.** What about the viability, T/C [16] of the same compound?
**A.** The viability, T/C was 107%.

**Q.** And the viability, T/C (second compound 0.1 µM, first compound 3.16 µM)?
**A.** The viability, T/C was 127%.

**Q.** What about the viability, T/C (second compound 0.1 µM, first compound 10 µM) of the same compound?
**A.** The viability, T/C was 161%.

**Q.** What about the viability, T/C [17] of the same compound?
**A.** The viability, T/C was 73%.

**Q.** What about the viability, T/C [18] of the same compound?
**A.** Its viability, T/C is 79.5%.

**Q.** What about the viability, T/C [19] of the same compound?
**A.** Its viability, T/C is 113%.

**Q.** And the viability, T/C [20]?
**A.** The viability, T/C was 106%.

**Q.** What about the viability, T/C (second compound 0.316 µM, first compound 3.16 µM) of the same compound?
**A.** Its viability, T/C is 115%.

**Q.** What about the viability, T/C (second compound 0.316 µM, first compound 10 µM) of the same compound?
**A.** The viability, T/C was 148%.

**Q.** What about the viability, T/C [21] of the same compound?
**A.** The viability, T/C was 98.4%.

**Q.** What about the viability, T/C [22] of the same compound?
**A.** The viability, T/C was 99.9%.

**Q.** What about the viability, T/C [23] of the same compound?
**A.** Its viability, T/C is 102%.

**Q.** What about the viability, T/C [24] of the same compound?
**A.** The viability, T/C was 79%.

**Q.** What about the viability, T/C (second compound 1 µM, first compound 3.16 µM) of the same compound?
**A.** The viability, T/C was 143%.

**Q.** What about the viability, T/C (second compound 1 µM, first compound 10 µM) of the same compound?
**A.** The viability, T/C was 154%.

**Q.** What does the source list for COc1c(OCCCN2CCOCC2)ccc2c3n(c(=NC(=O)c4cnc(N)nc4)nc12)CCN3 + CNC(C)C(=O)NC1CN(S(=O)(=O)c2cccc(S(=O)(=O)N3CCC4CCC(C(=O)NC(c5ccccc5)c5ccccc5)N4C(=O)C(NC(=O)C(C)NC)C3)c2)CCC2CCC(C(=O)NC(c3ccccc3)c3ccccc3)N2C1=O?
**A.** IC50 (second compound 0.00316 µM): 17.1 nM; IC50 (second compound 0.01 µM): 29.4 nM; IC50 (second compound 0.0316 µM): 24.6 nM; IC50 (second compound 0.1 µM): 15.6 nM; IC50 (second compound 0.316 µM): 13.2 nM; IC50 (second compound 1 µM): 10 nM; viability, T/C (second compound 0.00316 µM, first compound 0.00316 µM): 89.4%; viability, T/C (second compound 0.00316 µM, first compound 0.01 µM): 66.3%; viability, T/C [1]: 28.6%; viability, T/C [2]: 24.9%; viability, T/C [3]: 9.54%; viability, T/C [4]: 5.55%; viability, T/C (second compound 0.01 µM, first compound 0.00316 µM): 81.5%; viability, T/C (second compound 0.01 µM, first compound 0.01 µM): 71.1%; viability, T/C [5]: 49.9%; viability, T/C [6]: 18.6%; viability, T/C [7]: 10.2%; viability, T/C [8]: 5.07%; viability, T/C (second compound 0.0316 µM, first compound 0.00316 µM): 104%; viability, T/C (second compound 0.0316 µM, first compound 0.01 µM): 61.6%; viability, T/C [9]: 57.1%; viability, T/C [10]: 19.4%; viability, T/C [11]: 9.82%; viability, T/C [12]: 4.9%; viability, T/C (second compound 0.1 µM, first compound 0.00316 µM): 90.1%; viability, T/C (second compound 0.1 µM, first compound 0.01 µM): 59.8%; viability, T/C [13]: 32.2%; viability, T/C [14]: 25.8%; viability, T/C [15]: 13.8%; viability, T/C [16]: 5.12%; viability, T/C (second compound 0.316 µM, first compound 0.00316 µM): 78.7%; viability, T/C (second compound 0.316 µM, first compound 0.01 µM): 52.2%; viability, T/C [17]: 39.3%; viability, T/C [18]: 19.8%; viability, T/C [19]: 11.1%; viability, T/C [20]: 5.92%; viability, T/C (second compound 1 µM, first compound 0.00316 µM): 65.7%; viability, T/C (second compound 1 µM, first compound 0.01 µM): 51%; viability, T/C [21]: 32%; viability, T/C [22]: 21.2%; viability, T/C [23]: 10.2%; viability, T/C [24]: 5.66%
